Data reported in patent publication US4835161A, “Anti-histaminic compositions containing n-heterocyclyl-4-piperidinamines” (Janssen Pharmaceutica N.V., priority 1987, dated 1989).

Test system: compound 48/80-induced lethality
Assay: Protection of rats from compound 48/80-induced lethality
Type: in vivo, rat (male, inbred Wistar strain)
Settings: Rattus norvegicus; subcutaneous or oral; 1 h before compound 48/80 0.5 mg/kg i.v.; survival after 4 h; dose protecting 50% of animals; read-out: compound 48/80 lethality test in rats-ED50
Experimental: Protection of rats from compound 48/80-induced lethality
The protection from compound 48/80-induced lethal circulatory collapse appears to be a simple way of evaluating quantitatively the antihistaminic activity of test compounds. Male rats of an inbred Wistar strain, weighing 240-260 g were used in the experiment. After overnight starvation the rats were transferred to conditioned laboratories (temp.=21±1° C., relative humidity=65±5%). The rats were treated subcutaneously or orally with a test compound or with the solvent (NaCl solution, 0.9%). One hour after treatment there was injected intravenously compound 48/80, freshly dissolved in water, at a dose of 0.5 mg/kg (0.2 ml/100 g of body weight). […] Survival after 4 hours is therefore considered to be a safe criterion of a protective effect of drug administration. Said ED50 -values are the values in mg/kg body weight at which the tested compounds protect 50% of the tested animals against compound 48/80-induced lethality.

Fc1ccc(Cn2c(NC3CCNCC3)nc3cccnc32)cc1 [compound 123]
ED50: 0.08 mg/kg

Fc1ccc(Cn2c(NC3CCNCC3)nc3ncccc32)cc1 [compound 135]
ED50: 0.01 mg/kg

c1coc(Cn2c(NC3CCNCC3)nc3cccnc32)c1 [compound 140, 3-(2-furanylmethyl)-N-(4-piperidinyl)-3H-imidazo[4,5-b]pyridin-2-amine]
ED50: 0.08 mg/kg

Cc1ccc(Cn2c(NC3CCNCC3)nc3cccnc32)o1 [compound 166, 3-[(5-methyl-2-furanyl)methyl]-N-(4-piperidinyl)-3H-imidazo[4,5-b]pyridin-2-amine]
ED50: 0.04 mg/kg
